What was measured:
[1] = Single dose pharmacokinetics of VRx-3996 in patients given oral nanatinostat and valganciclovir; type: in vivo, humans; settings: Treatment C = 10 mg VRx-3996 p.o. and 900 mg Valganciclovir p.o., N 4
[2] = target: HDAC1 (Homo sapiens, UniProt Q13547); assay: HDAC activity assay (fluorescence); type: biochemical; settings: HDAC1, 10 μM HDAC Substrate 3
Procedure: (§1) Briefly, all of the compounds are dissolved in DMSO. A series of dilutions of the compounds were prepared with 10% DMSO in HDAC assay buffer and 5 μl of the dilution was added to a 50 μl reaction so that the final concentration of DMSO is 1% in all of reactions. The compounds were pre-incubated in duplicate at RT for 1 hour in a mixture containing HDAC assay buffer, 5 μg BSA, HDAC enzyme (see Table 7) and a the particular HDACi. After 1 hour, the enzymatic reactions were initiated by the addition of HDAC substrate (BPS Bioscience) to a final concentration of 10 μM or 2 μM. The enzymatic reaction proceeded for 30 minutes at 37° C.
(§2) HDAC activity assays were performed in duplicates at each concentration. The fluorescent intensity data were analyzed using the computer software, Graphpad Prism. In the absence of the compound, the fluorescent intensity (Ft) in each data set was defined as 100% activity. In the absence of HDAC, the fluorescent intensity (Fb) in each data set was defined as 0% activity. The percent activity in the presence of each compound was calculated according to the following equation: % activity=(F−Fb)/(Ft−Fb), where F=the fluorescent intensity in the presence of the compound. […]

[3] = target: HDAC3/NCOR2 (Homo sapiens, UniProt O15379); assay: HDAC activity assay (fluorescence); type: biochemical; settings: HDAC3/NCOR2, 10 μM HDAC Substrate 3
Chain of HDAC3/NCOR2 (O15379 whole entry): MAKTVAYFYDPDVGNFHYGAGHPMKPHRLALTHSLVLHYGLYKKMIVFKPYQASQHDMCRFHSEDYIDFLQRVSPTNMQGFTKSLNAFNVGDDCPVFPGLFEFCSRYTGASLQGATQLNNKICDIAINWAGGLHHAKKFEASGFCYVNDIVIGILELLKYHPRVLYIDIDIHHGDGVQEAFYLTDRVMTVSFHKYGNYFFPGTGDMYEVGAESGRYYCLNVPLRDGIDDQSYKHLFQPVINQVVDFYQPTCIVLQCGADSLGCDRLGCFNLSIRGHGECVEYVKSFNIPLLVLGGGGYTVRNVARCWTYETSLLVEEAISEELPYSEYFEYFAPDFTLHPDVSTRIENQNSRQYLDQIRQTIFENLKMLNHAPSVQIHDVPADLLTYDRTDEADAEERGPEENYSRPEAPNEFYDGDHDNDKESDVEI
Chain of HDAC3/NCOR2 (Q9Y618 395-489 partner limits assumed): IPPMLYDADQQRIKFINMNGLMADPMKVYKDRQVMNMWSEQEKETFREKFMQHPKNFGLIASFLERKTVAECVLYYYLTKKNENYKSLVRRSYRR
Procedure: as §1, §2

[4] = target: HDAC2 (Homo sapiens, UniProt Q92769); type: biochemical; settings: HDAC2, 10 μM HDAC Substrate 3
Chain of HDAC2 (Q92769 whole entry): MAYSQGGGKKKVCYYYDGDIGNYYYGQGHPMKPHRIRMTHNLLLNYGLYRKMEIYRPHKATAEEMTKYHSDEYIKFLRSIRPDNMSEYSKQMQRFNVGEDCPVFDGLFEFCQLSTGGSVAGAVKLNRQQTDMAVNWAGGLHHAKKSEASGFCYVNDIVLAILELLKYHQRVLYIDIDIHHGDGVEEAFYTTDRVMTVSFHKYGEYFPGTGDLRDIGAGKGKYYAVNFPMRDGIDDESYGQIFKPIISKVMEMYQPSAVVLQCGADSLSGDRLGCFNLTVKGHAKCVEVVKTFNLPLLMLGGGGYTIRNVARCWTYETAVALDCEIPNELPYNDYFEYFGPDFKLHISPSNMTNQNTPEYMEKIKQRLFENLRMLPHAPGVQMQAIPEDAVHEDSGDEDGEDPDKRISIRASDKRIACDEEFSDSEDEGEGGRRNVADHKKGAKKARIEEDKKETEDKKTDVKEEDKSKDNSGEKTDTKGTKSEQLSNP
Procedure: as §1, §2

[5] = target: T1, HDAC6 (Homo sapiens, UniProt Q9UBN7); settings: HDAC6, 10 μM HDAC Substrate 3
T1 sequence (Q9UBN7 1-1215): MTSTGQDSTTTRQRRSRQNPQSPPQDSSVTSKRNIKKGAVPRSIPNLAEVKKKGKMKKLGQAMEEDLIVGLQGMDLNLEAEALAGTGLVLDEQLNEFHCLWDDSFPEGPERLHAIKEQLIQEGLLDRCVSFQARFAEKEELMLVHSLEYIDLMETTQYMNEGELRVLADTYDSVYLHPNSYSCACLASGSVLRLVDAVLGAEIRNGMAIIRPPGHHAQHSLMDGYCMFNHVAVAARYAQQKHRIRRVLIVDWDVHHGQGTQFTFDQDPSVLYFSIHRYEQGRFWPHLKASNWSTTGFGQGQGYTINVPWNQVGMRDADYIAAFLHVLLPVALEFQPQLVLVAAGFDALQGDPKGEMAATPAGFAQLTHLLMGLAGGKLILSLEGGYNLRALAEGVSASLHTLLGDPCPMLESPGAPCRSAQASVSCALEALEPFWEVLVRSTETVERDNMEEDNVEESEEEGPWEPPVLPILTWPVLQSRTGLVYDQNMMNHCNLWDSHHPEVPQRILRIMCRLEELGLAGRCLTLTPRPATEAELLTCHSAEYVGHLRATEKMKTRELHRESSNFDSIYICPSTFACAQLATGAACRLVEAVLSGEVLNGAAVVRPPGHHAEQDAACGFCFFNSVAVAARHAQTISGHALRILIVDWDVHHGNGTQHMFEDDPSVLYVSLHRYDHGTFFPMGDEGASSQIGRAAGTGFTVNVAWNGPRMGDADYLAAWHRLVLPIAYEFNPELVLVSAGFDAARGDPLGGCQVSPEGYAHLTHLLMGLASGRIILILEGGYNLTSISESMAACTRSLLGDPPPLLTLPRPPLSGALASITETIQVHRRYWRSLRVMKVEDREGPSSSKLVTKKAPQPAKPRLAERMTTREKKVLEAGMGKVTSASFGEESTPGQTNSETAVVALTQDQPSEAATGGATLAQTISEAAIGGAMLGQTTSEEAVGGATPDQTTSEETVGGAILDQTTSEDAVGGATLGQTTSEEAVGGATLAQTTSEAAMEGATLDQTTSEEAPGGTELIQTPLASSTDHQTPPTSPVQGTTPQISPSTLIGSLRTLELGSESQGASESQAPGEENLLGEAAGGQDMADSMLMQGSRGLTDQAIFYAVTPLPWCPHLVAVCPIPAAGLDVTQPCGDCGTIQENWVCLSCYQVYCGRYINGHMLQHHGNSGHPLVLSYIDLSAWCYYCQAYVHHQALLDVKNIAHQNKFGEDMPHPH
Procedure: as §1, §2

[6] = test system: Histone 3 acetylation in peripheral blood mononuclear cells; assay: H3 acetylation in peripheral blood mononuclear cells of healthy donors (flow cytometry); type: cell-based, human
Excerpt: Percentage of cells with H3 acetylation, as determined by flow cytometry, is shown.
Since H3 acetylation is a pharmacodynamic biomarker of Nstat activity, acetylation of H3 was examined in treated cells.

[7] = test system: P3HR1 Burkitt's lymphoma cells; assay: Cell death by 7AAD staining after Nstat, washout, then ganciclovir
Procedure: P3HR1 Burkitt's lymphoma cells were incubated with DMSO (solvent control) or Nstat for 3 days. After that time cell cultures were washed re-fed with ganciclovir (GCV) for an additional 3 days. All test conditions were run in triplicate. Cell death was measured by 7AAD staining.

[8] = in vivo; cited from earlier work

Chain of HDAC1 (Q13547 whole entry): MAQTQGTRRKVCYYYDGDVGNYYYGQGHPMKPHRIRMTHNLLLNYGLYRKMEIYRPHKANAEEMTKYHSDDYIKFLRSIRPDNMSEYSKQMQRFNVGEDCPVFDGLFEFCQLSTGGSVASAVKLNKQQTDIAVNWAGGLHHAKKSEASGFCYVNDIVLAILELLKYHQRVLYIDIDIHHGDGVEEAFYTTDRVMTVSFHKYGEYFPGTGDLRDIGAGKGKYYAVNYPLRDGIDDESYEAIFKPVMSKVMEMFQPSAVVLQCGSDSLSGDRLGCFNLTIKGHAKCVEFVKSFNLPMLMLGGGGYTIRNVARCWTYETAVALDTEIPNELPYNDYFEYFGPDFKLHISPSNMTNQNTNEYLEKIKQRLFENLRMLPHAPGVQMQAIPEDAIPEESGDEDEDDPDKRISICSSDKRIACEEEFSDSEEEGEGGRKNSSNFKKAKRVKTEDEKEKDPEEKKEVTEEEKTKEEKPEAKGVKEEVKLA

SMILES | AUC, geometric mean [1] | IC50 [2] | IC50 [3] | IC50 [4] | IC50 [5] | duration of effect on H3 acetylation ([6]; PBMC from healthy donors, doses down to 10 nM, FIG. 3) | potency in inducing elevated levels of Histone 3 acetylation ([6]; PBMC of healthy volunteers, even at a dose of 100 nM, FIG. 2) | increase of cytotoxic activity when combined with Ganciclovir [7] | cell cytotoxicity when combined with ganciclovir ([7]; EBV infected cell line P3HR1, effect seen even after Nstat removal) | elimination half-life [8]
O=C(NO)c1cnc(N2C[C@@H]3[C@H](C2)[C@H]3NCc2ccc3cc(F)ccc3n2)nc1 [Nstat, 2-((1R,5S,6s)-6-(((6-fluoroquinolin-2-yl)methyl)amino)-3-azabicyclo[3.1.0]hexan-3-yl)-N-hydroxypyrimidine-5-carboxamide] | 322 ng·h/mL | 3.6 nM | 12 nM | 12 nM | 450 nM | long-lasting | much more potent than entinostat | ~40% | increases cell cytotoxicity | –
Nc1ccccc1NC(=O)c1ccc(CNC(=O)OCc2cccnc2)cc1 [MS-275, entinostat] | – | – | – | – | – | – | – | – | – | approximately 36 hours
